Measurements from patent publication US6875770B2, “Indole derivative having heterocycle and mono- or diazaindole derivative” (Chugai Seiyaku Kabushiki Kaisha, priority 1998, dated 2005).

Columns and labels:
Human COX-2 = molecular target: T1, Human COX-2 (Homo sapiens, UniProt P35354); assay: Inhibitory activity against human COX-2 using peripheral blood (LPS-stimulated, thromboxane B2 EIA); format: cell-based; details: LPS 10 μg/ml, 37° C. 5 hours
T1 construct: 500 μl of peripheral blood collected from a healthy volunteer; endogenous in cells; host or cells: human whole peripheral blood from a healthy volunteer, stimulated with LPS
T1 sequence (P35354 18-604): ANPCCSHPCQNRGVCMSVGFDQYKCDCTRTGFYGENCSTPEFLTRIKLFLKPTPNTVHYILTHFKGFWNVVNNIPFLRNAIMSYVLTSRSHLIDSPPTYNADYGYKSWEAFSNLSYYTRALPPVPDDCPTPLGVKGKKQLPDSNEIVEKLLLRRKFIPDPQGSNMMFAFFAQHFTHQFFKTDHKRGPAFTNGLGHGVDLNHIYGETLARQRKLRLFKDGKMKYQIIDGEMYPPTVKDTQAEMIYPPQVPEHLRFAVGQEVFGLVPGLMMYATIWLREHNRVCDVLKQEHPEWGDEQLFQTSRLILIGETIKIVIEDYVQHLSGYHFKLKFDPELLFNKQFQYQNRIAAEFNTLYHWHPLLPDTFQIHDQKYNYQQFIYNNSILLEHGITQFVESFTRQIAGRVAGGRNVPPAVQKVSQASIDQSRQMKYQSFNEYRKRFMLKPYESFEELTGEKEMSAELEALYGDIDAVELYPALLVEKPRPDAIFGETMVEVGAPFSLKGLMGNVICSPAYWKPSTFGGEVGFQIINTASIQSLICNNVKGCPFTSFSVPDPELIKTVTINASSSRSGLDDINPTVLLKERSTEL
Protocol: (§1) Method for Measuring Inhibitory Activity Against Human COX-1 and COX-2 Using Peripheral Blood
(§2) 1 μl of a solution of the compound of the present invention in DMSO was added to 500 μl of peripheral blood collected from a healthy volunteer.
In the case of measuring COX-2 activity, LPS (E. coli 026:B6) was added onto blood to which the compound has been added to a concentration of 10 μg/ml followed by incubating at 37° C. for 5 hours and transferring onto ice to stop the reaction.

Human COX-1 = molecular target: T2, Human COX-1 (Homo sapiens, UniProt P23219); assay: Inhibitory activity against human COX-1 using peripheral blood (calcium ionophore A23187, thromboxane B2 EIA); format: cell-based; details: 37° C. 4.5 hours then A23187 500 μM 30 minutes
T2 construct: 500 μl of peripheral blood collected from a healthy volunteer; endogenous in cells; host or cells: human whole peripheral blood from a healthy volunteer, stimulated with calcium ionophore A23187
Protocol: as §1, §2
In the case of measuring COX-1 activity, after incubating at 37° C. for 4.5 hours, calcium ionophore A23187 was added to a final concentration of 500 μM followed by additional incubation at 37° C. for 30 minutes and transferring to ice to stop the reaction.

T2 sequence (P23219 24-599): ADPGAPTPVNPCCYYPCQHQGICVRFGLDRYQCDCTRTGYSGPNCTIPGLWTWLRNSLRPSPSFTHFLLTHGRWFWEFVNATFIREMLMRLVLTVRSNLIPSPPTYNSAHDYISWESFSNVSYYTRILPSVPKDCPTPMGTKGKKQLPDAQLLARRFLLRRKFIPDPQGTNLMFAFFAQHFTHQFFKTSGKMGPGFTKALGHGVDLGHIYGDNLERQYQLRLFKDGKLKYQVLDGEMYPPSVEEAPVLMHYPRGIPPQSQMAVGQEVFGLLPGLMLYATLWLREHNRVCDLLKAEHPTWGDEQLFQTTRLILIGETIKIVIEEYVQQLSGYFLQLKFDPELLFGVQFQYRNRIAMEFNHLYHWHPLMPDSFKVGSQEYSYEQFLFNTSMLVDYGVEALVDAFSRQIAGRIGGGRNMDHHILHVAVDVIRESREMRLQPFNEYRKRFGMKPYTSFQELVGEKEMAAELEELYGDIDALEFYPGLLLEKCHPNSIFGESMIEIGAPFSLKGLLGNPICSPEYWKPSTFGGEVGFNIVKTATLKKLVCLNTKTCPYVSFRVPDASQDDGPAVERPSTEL

Row | Structure (SMILES) | IC50 (Human COX-2) | IC50 (Human COX-1) | melting point
1 | CS(=O)(=O)c1ccc2c(c1)cc(-c1ccco1)n2CC1CCCCC1 [Example 9, 1-Cyclohexylmethyl-2-(2-furanyl)-5-methanesulfonylindole] | 2000 nM | > 20000 nM | –
2 | CS(=O)(=O)c1cnc2c(c1)cc(-c1ccco1)n2Cc1ccc(F)cc1 [Example 1, 2-(2-Furyl)-1-(4-fluorobenzyl)-5-methanesulfonyl-1H-pyrrolo[2,3-b]pyridine] | 150 nM | > 20000 nM | –
3 | CS(=O)(=O)c1ccc2c(c1)cc(-c1nnco1)n2Cc1ccc(F)cc1 [Example 4, 1-(4-Fluorobenzyl)-5-methanesulfonyl-2-([1,3,4]oxadiazol-2-yl)indole] | 4000 nM | > 20000 nM | –
4 | CS(=O)(=O)c1cnc2c(c1)cc(-c1ccccn1)n2Cc1ccc(F)cc1 [Example 5, 5-Methanesulfonyl-2-(2-pyridyl)-1-(4-fluorobenzyl)-1H-pyrrolo[2,3-b]pyridine] | 400 nM | > 20000 nM | –
5 | CS(=O)(=O)c1cnc2c(c1)cc(-c1ncco1)n2Cc1ccc(F)cc1 [Example 3, 1-(4-Fluorobenzyl)-2-(oxazol-2-yl)-5-methanesulfonyl-1H-pyrrolo[2,3-b]pyridine] | 300 nM | > 20000 nM | 200 to 201 °C
6 | CS(=O)(=O)c1ccc2c(c1)cc(-c1nccs1)n2Cc1ccc(F)cc1 [Example 2, 1-(4-Fluorobenzyl)-5-methanesulfonyl-2-(thiazol-2-yl)indole] | 500 nM | > 20000 nM | –

Second part, the compound after the results:

Row | IC50 (Human COX-2) | IC50 (Human COX-1) | melting point | Structure (SMILES)
7 | 1500 nM | > 20000 nM | – | CS(=O)(=O)c1cnc2c(c1)cc(-c1ncccn1)n2CC1CCCCC1 [Example 7, 1-Cyclohexylmethyl-5-methanesulfonyl-2-(2-pyrimidinyl)-1H-pyrrolo[2,3-b]pyridine]
8 | 100 nM | > 20000 nM | – | CS(=O)(=O)c1ccc2c(c1)cc(C1=CCOCC1)n2Cc1ccc(F)cc1 [Example 14, 2-(5,6-Dihydro-2H-4-pyranyl)-1-(4-fluorobenzyl)-5-methanesulfonyl-indole]
9 | 150 nM | > 20000 nM | – | CS(=O)(=O)c1cnc2c(c1)cc(-c1ccco1)n2CC1CCCCC1 [Example 12, 2-(2-Furanyl)-1-cyclohexylmethyl-5-methanesulfonyl-1H-pyrrolo[2,3-b]pyridine]
10 | 800 nM | > 20000 nM | – | CNC(=O)c1ccc(-c2cc3cc(S(C)(=O)=O)ccc3n2Cc2ccc(F)cc2)nc1 [Example 17, 1-(4-Fluorobenzyl)-5-methanesulfonyl-2-(5-methylaminocarbonylpyridin-2-yl)indole]
11 | 200 nM | > 20000 nM | – | Cc1ccc(-c2cc3cc(S(C)(=O)=O)cnc3n2Cc2ccc(F)cc2)o1 [Example 11, 1-(4-Fluorobenzyl)-5-methanesulfonyl-2-(5-methylfuran-2-yl)-1H-pyrrolo[2,3-b]pyridine]
12 | 4000 nM | > 10000 nM | – | CS(=O)(=O)c1ccc2c(c1)cc(C1CCCO1)n2Cc1ccc(F)cc1 (stereo not shown) [Example 13, 2-(2-Tetrahydrofuranyl)-1-(4-fluorobenzyl)-5-methanesulfonyl-indole]
13 | 800 nM | > 20000 nM | – | CS(=O)(=O)c1ccc2c(c1)cc(-c1ccco1)n2Cc1ccc(F)cc1 [Example 8, 2-(2-Furanyl)-1-(4-fluorobenzyl)-5-methanesulfonyl-1H-indole]
14 | 1500 nM | > 20000 nM | – | CS(=O)(=O)c1cnc2c(c1)cc(-c1ccco1)n2Cc1ccccn1 [Example 10, 2-(2-Furanyl)-5-methanesulfonyl-1-(2-pyridylmethyl)-1H-pyrrolo[2,3-b]pyridine]
15 | 200 nM | > 20000 nM | – | CS(=O)(=O)c1cnc2c(c1)cc(-c1nnco1)n2Cc1ccc(F)cc1 [Example 33, 1-(4-Fluorobenzyl)-5-methanesulfonyl-2-([1,3,4]oxadiazol-2-yl)-1H-pyrrolo[2,3-b]pyridine]
